Measurements as given in ChEMBL document CHEMBL1201862, “PubChem BioAssay data set” (2004).
Active and inactive are the calls of the source.

How the values were obtained:
HEK293 = test: inhibitors of LMP1-driven NF-kB reporter, dose response, cell-based, HEK293, luciferase, cherry-pick (AID 588343); format: functional; conditions: Homo sapiens
[1] = biological target: T1, Ubiquitin-conjugating enzyme E2 N (Homo sapiens, UniProt P61088); format: functional;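 also: Dose-response confirmation in a TR-FRET assay detecting UBC13-driven polyubiquitin chain formation, inhibition measured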
T1 sequence (P61088 whole entry): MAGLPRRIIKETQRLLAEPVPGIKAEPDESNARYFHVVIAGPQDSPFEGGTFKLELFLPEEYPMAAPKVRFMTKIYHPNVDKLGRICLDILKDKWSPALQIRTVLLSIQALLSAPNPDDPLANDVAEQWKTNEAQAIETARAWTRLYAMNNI

[2] = biological target: FAD-linked sulfhydryl oxidase ALR (Homo sapiens, UniProt P55789); test: inhibitors of human ALR sulfhydryl oxidase, dose response, biochemical, H2O2 detection, luminescence, cherry-pick (AID 493248)
[3] = ZM109 Env clade C HIV-1 fusion inhibitors, dose response, HeLa effector, CEM target cells, luciferase, cherry-pick (AID 652058); format: functional, cell-based
[4] = inhibitors of HIV Env-driven cell fusion, dose response, cherry-pick (AID 652057); format: functional, cell-based
[5] = inhibitors of clade B AD8 Env fusion, dose response, cell-based, cherry-pick (AID 652062); format: functional;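 also: luciferase signal from cell-cell fusion driven by HIV-1 clade B AD8 Env; potency is for inhibitors of fusion seen as a drop in luminescence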
[6] = off-target signal loss in HeLa-CEM21 co-culture – HeLa F-luc CTL cells, cherry-picked, counter-screen for HIV-1 Env fusion inhibitor project, dose response (AID 652040); format: functional, cell-based;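 also: potency for signal decrease marking cytotoxic or nonspecific inhibition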
[7] = biological target: T2, Calpain-2 catalytic subunit (Sus scrofa, UniProt P43367); test: pig calpain II inhibitor potency, dose response, biochemical, fluorogenic peptide substrate (AID 1420); format: functional
T2 sequence (P43367 whole entry): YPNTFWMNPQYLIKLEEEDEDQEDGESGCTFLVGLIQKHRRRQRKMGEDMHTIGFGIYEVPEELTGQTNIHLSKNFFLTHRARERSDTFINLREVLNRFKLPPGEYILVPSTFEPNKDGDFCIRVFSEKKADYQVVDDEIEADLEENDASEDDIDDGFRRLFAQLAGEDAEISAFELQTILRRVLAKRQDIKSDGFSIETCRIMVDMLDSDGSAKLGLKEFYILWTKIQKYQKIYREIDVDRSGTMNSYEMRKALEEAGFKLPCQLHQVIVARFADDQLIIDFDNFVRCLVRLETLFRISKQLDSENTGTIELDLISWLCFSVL

[8] = Shn3 3'UTR reporter inhibitors, dose response, cell-based, Clone20 osteoblasts, firefly luciferase, cherry-picked (AID 624132); format: functional;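 also: firefly luciferase luminescence from reporter carrying the Shn3 3'UTR in osteoblasts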
[9] = HepG2 cell cytotoxicity, dose response, cytotoxicity control for Shn3 inhibitor project, CellTiter-Glo, cherry-picked (AID 624134); format: functional, cell-based
[10] = control 3'UTR Renilla luciferase suppression, dose response, counter-screen for Shn3 inhibitor project, cell-based, Clone20-Shn3RL, cherry-picked (AID 624133); format: functional
cells [11] = format: functional, cell-based
cells [12] = format: functional, cell-based; remark: listed apart in the source
[13] = biological target: T3, Polyadenylate-binding protein 1 (Homo sapiens, UniProt P11940); test: PABP1 MLLE–PAM2 binding inhibitor potency, dose response, biochemical, fluorescence polarization, FITC-PAM2 peptide (AID 602259); format: functional; conditions: read-out: IC50_Mean
INS1 = test: beta cell apoptosis inhibitors, cytokine rescue, dose response, luminescence, retest (AID 449756); format: functional, cell-based; conditions: Rattus norvegicus;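 also: cell death triggered by IL-1 beta plus TNF-alpha plus IFN-gamma mixture; protective hits raise ATP signal compared with cytokine alone wells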
[14] = microbe, parasite or virus in culture; format: functional; conditions: Mycobacterium tuberculosis
[15] = biological target: T3, Polyadenylate-binding protein 1; test: PABP1 MLLE–PAM2 interaction inhibitors, dose response, miRNA deadenylation inhibitor project, biochemical, fluorescence polarization, Cy5-PAM2 peptide, secondary (AID 602260); format: functional; conditions: read-out: IC50_Mean
[16] = cytotoxicity in HEK-293T cells, dose response, cytotoxicity control for TCR NF-kB inhibitor project, luminescence, T-cell screen hits (AID 489026); format: functional, cell-based;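 also: cells exposed to compound about 14 hours before the viability readout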
Cytochrome P450 2C19 = Cytochrome P450 2C19 (Homo sapiens, UniProt P33261); test: Cytochrome panel assay with activity outcomes. Panel member name: p450-cyp2c19 Compounds with AC50 equal or less than 10 uM are considered active; format: functional; conditions: read-out: AC50
[17] = growth suppression of beta-catenin-knockout colon cells, dose response, cell-based, HCT116, human colon tumor (AID 1045); format: functional;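 also: HCT116 colon tumor cells with beta catenin knocked out; cells exposed to compound for 60 hours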
[18] = biological target: Luciferin 4-monooxygenase (Photinus pyralis, UniProt P08659); test: firefly luciferase enzyme inhibitors, dose response, biochemical, luminescence (AID 1891)
[19] = growth suppression of PTEN-null colon cells, dose response, cell-based, HCT116 PTEN knockout (AID 1047); format: functional;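 also: HCT116 colon tumor cells with PTEN knocked out; cells exposed to compound for 60 hours before readout; potency for loss of cell viability measured by luminescence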
[20] = Luminescence Cell-Based Dose Confirmation HTS to Identify Inhibitors of Platelet Dense Granule Release. [Related pubchem assays: 1663 (Primary HTS), 1678 (Summary of Project)]; format: functional

T3 sequence (P11940 whole entry): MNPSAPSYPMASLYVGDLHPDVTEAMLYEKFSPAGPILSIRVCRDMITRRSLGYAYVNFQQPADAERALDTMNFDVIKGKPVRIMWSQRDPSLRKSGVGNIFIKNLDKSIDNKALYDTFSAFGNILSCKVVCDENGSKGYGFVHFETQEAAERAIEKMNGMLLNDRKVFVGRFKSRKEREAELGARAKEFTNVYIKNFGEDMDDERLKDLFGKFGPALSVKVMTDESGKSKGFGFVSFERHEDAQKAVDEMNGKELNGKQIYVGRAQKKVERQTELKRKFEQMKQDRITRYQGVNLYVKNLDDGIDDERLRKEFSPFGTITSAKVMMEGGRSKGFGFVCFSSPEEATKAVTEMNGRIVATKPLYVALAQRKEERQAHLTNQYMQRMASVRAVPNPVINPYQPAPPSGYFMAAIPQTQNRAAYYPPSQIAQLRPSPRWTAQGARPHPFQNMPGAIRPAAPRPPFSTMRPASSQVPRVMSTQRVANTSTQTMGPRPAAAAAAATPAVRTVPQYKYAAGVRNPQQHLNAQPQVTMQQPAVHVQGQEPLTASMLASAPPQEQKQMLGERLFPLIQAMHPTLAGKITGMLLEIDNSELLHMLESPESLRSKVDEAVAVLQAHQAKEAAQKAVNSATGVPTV
Chain of FAD-linked sulfhydryl oxidase ALR (P55789 whole entry, the tested form may be a part): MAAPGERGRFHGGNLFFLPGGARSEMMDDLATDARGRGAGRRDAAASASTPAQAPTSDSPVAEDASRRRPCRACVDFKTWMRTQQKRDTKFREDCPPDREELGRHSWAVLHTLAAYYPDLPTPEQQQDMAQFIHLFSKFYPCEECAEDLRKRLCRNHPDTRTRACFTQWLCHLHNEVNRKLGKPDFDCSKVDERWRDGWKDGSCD
Chain of Cytochrome P450 2C19 (P33261 whole entry): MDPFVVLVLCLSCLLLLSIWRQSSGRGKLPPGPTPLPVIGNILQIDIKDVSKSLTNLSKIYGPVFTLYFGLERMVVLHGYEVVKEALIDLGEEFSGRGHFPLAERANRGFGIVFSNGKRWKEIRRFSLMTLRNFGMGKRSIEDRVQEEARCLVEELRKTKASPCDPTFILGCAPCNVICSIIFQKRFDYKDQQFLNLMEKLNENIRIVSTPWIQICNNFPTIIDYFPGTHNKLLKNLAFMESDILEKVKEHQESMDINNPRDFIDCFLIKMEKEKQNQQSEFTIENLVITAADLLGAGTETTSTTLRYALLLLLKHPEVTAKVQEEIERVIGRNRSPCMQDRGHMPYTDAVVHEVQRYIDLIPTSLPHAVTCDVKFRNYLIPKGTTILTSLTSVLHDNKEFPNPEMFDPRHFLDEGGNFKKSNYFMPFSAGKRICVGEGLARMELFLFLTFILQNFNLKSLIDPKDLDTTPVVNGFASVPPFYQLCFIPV
Chain of Luciferin 4-monooxygenase (P08659 whole entry): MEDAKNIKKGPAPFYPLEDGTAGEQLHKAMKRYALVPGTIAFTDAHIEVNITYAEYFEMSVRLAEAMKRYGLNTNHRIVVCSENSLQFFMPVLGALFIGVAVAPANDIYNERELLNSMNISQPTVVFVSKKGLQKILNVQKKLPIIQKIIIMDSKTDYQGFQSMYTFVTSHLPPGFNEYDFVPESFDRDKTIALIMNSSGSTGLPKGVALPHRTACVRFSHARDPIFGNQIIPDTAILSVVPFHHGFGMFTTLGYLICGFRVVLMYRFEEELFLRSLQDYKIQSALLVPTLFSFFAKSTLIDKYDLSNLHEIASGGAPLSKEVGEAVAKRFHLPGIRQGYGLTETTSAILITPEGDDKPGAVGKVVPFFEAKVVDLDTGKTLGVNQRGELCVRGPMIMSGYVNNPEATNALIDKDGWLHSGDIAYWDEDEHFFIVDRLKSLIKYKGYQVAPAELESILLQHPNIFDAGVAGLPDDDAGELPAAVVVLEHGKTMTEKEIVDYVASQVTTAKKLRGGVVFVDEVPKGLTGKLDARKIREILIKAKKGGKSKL

## O=C(NN=Cc1ccc(N(CCCl)CCCl)cc1)c1cccnc1
HEK293
  AC50: 1.08 µM (active)

## Cc1ccc(S(=O)(=O)NNC(=O)C(=O)NNc2ccccn2)cc1
[1]
  IC50: > 20 µM (inactive)
[2]
  AC50: 0.213 µM (active)

## COc1ccc(N(C(=O)c2snc(C(N)=O)c2N)C(C(=O)NC2CCCC2)c2cccs2)cc1OC (stereo not given)
[1]
  IC50: > 20 µM (inactive)

## COC(=O)[C@@]1(C)[C@H]2C(=O)N(Cc3ccccc3)C(=O)[C@H]2[C@H]2CN=C(SCc3ccccc3)N21
[3]
  AC50: 0.74 µM (active)
[4]
  AC50: 0.75 µM (active)
[5]
  AC50: 4.03 µM (active)
[6]
  AC50: 1.02 µM (active)

## O=Cc1ccc(-c2ccc([N+](=O)[O-])cc2Cl)o1
[7]
  IC50: > 50 µM (not active)

## CCOc1ccc(CCN2C(=S)N([C@@H](CC(C)C)CN3CCCC3CN3C(=S)NC[C@@H]3Cc3ccc(O)cc3)C[C@@H]2Cc2ccc(O)cc2)cc1 (stereo not given in full)
[8]
  AC50: 11.5 µM (active)
[9]
  AC50: 53.9 µM (active)
[10]
  AC50: 6.52 µM (active)

## O=C(Nc1cccc(Cl)c1)Nc1cccc(C(=O)O)c1
Cells [11]
  EC50: > 350 µM (not active)
HEK293
  AC50: 10.5 µM (active)
Cells [12]
  EC50: 7.49 µM (active)

## S=C(Nc1ccc(Nc2ccccc2)cc1)Nc1ccccn1
[13]
  IC50: > 66 µM (inactive)
INS1
  AC50: 6.34 µM (active)
[14]
  CC50: > 40 µM (active)
[15]
  IC50: > 66 µM (inactive)

## COc1ccccc1-c1sc2cc3c(cc2c1-c1ccc(OCCN2CCCCC2)cc1)OCO3
[1]
  IC50: > 20 µM (inactive)

## Cc1c(CCOC(=O)CC23CC4CC(CC(C4)C2)C3)sc[n+]1CC(=O)c1ccccc1
[1]
  IC50: > 20 µM (inactive)

## C[C@@H]1CN([C@H](C)CO)C(=O)c2cccc(NS(=O)(=O)c3cccs3)c2O[C@@H]1CN(C)Cc1ccc(Cl)c(Cl)c1
[3]
  AC50: 0.952 µM (active)
[4]
  AC50: 0.444 µM (active)
[5]
  AC50: 2.53 µM (active)

## CCOC(=O)C1CN(S(=O)(=O)c2ccc(C)cc2)C1
[7]
  IC50: 4.65 µM (not active)

## O=C1C=C(c2ccc3ncccc3c2)C[C@@H](c2ccc3c(c2)OCO3)C1
[16]
  IC50: > 80 µM (inactive)

## CCCCCCCCC[n+]1cccc2c3ccccc3ccc21
Cytochrome P450 2C19
  AC50: 20 µM (inconclusive)
[16]
  IC50: 49.8 µM (inactive)
[17]
  EC50: 0.798 µM (active)
[18]
  EC50: 67.9 µM (active)
[19]
  EC50: 0.868 µM (active)
[20]
  EC50: 64.7 µM (active)

## CC(C)=CCC/C(C)=C/CNC(=O)C[C@H]1C[C@H](C(=O)N(C(C)C)C(C)C)[C@@]2(C)c3[nH]c4cc(CCC(=O)N(C)C)ccc4c3CCN2C1=O
[8]
  AC50: 2.05 µM (active)
[10]
  AC50: 11.9 µM (active)

## O=C(O)c1ccc(N/N=C/c2cc3cc4c(cc3nc2Cl)OCCO4)cc1
HEK293
  AC50: 1.69 µM (active)

## O=C(NCc1cccnc1)C1CCC(CNS(=O)(=O)c2ccc(Cl)cc2)CC1 (stereo not given)
[7]
  IC50: 2.58 µM (not active)

## CCOCCOC(=O)c1[nH]c2c(c1C)C(=O)CC(c1cccs1)C2 (stereo not given)
[16]
  IC50: > 80 µM (inactive)

## c1ccc(C[C@H]2CN=C(Nc3ccccc3)N2CCCC2CCCC2)cc1
[14]
  CC50: > 40 µM (active)

## CC(C)Sc1nc2c3ccccc3nc-2c(O)n1C
[7]
  IC50: 0.899 µM (not active)

## Cc1cccc(N(C(=O)c2snc(C(N)=O)c2N)C(C(=O)NCC2CCCO2)c2cccs2)c1 (stereo not given)
[1]
  IC50: > 20 µM (inactive)
